We go through three compounds from patent publication US20200360249A1, “AN ANTIMICROBIAL COMPOSITION” (Conopco, Inc., d/b/a UNILEVER, priority 2017, published 2020).

Holding throughout (type): cell-based
The test system of assay [1] is M. furfur. The assay can be described thus: Antifungal activity, log reduction by plate count. The following applies: M. furfur ATCC 14521; contact time 24 hr; 10 mg sample in 1000 μL inoculum, 10^5 cells/ml; 32° C. As for the experimental part:
The samples as given in Table-1 were subjected to their anti fungal efficacy on M. furfur as described hereinafter.
Plate was at 30° C. for 72 hrs. Approximately 72 hrs prior to testing, the plate culture was inoculated onto the surface of another sterile Modified Dixon agar plate and incubated at 30° C. for approximately 72 hrs. From second subculture, the optical density of culture is adjusted at 620 nm to give cell strength of 10^7 cfu/ml. The culture was further diluted by 100 times to achieve 10^5 cfu/ml in Pityrosporum broth.
10 mg of each sample was thoroughly mixed by vortex and weighed into a sterile 1.5 ml Eppendorf tube. 1000 μL of M. furfur inocula were added to the above tubes and a blank sterile 1.5 ml Eppendorf tube (no particles as control), respectively so that the load in each tube is 10^5 cells/ml.
All the samples were shaken at 120 RPM in a shaker incubator at 32° C. After 24 hours incubation, 10 μL of the samples were withdrawn from the respective 1.5 ml Eppendorf tubes and diluted with 990 μL of Pityrosporum broth. This represents a 10^2 dilution. Serial dilution was performed from the above 24 hours inocula and plated 100 μL of dilution onto modified Dixon plate. Plate dilution 10^2, 10^3, 10^4 and […]. All the plates were kept for incubation at 32° C. for 24-72 hrs. Plate count for all the plates were done.

Assay [2] relates to Staphylococcus aureus. Briefly: Antibacterial efficacy, log reduction by plate count. The settings on record: contact time 60 seconds, 40 mg sample in 100 ml water, pH 10, room temperature.
Description: 40 mg of the powdered sample was dispersed in 100 ml deionised sterile water. The pH was maintained at 10 using NaOH. 8 ml of the solution was taken, to it 1 ml cell (1 mL bacterial suspension of Staphylococcus aureus (stock 10^9 cells/MI) and 1 ml of distilled water was added. The incubation was done at room temperature for 30 and 60 seconds respectively. 1 ml of the above reaction mixtures was taken and added to 9 ml of Dey-Engley Neutralizing Broth. This was further incubated for 5 minutes. This represents 10^−1 dilution. Serial dilutions were performed for plate count.
Assay [3] deals with M. furfur ATCC 14521. Briefly: Disc diffusion technique (agar cup method), zone of inhibition. The settings on record: test conc. 0.5 %, Modified Dixon agar, 72 hrs at 32 C, disc diameter 10 mm. On the technique in general: Agar diffusion results depend on both activity and mobility in agar.
Description: The plates are swabbed with 100 μl of test inoculum containing approximately 10^6 cells/ml. The swabbed plates are allowed to dry for 5 mins so to absorb excess of remaining culture fluid. The discs impregnated with different test solution were placed on the inoculated agar surface. Each plate was labelled with different test solution and their respective concentration used. The agar plates are incubated for 72 hrs at 32° C. Zones of inhibition are measured using calibrated mm ruler.
Media used: Modified Dixon agar
Incubation conditions: 72 hrs at 32 C
Diameter of disc used: 10 mm (Himedia make)

`NC(=O)c1ccccn1.[Zn]` [D, Zinc picolinamide] gave a Log reduction in assay [1] of 1.92.
With Zinc isoniacinamide [B], the Log reduction in assay [1] is listed as 1.98; in assay [2] it was 0.9. Besides, the “zone of inhibition (mm)” value in assay [3] is 0 mm.
As for Zinc niacinamide, the Log reduction in assay [1] was determined as 1.96.
